Reference: patent US4492693A, “Benzothienylglycyl cephalosporin derivatives” (priority 1983, dated 1985)
≈ marks a conversion by molar mass, not a printed value. Read-outs that look alike come from different tables or passages of the source.

Assays:
pKa (66% aqueous DMF) = format: physicochemical
[1] = system: β-lactamase, organism 1313G; assay: Stability to β-lactamase (Table V); format: biochemical; conditions: lower numbers mean greater stability
[2] = system: β-lactamase, organism 265A; assay: Stability to β-lactamase (Table V); format: biochemical; conditions: lower numbers mean greater stability
Bacteroides fragilis = assay: Expanded anaerobic Spectrum MIC (Table IV); format: cell-based
Haemophilus influenzae = assay: Expanded H. influenzae Spectrum MIC (Table IV); format: cell-based
[3] = system: β-lactamase, organism 1082E; assay: Stability to β-lactamase (Table V); format: biochemical; conditions: lower numbers mean greater stability
[4] = system: β-lactamase, organism TEM; format: biochemical; conditions: lower numbers mean greater stability
[5] = system: β-lactamase, organism PS185; assay: Stability to β-lactamase (Table V); format: biochemical; conditions: lower numbers mean greater stability
[6] = read-out: MIC mean, mean over strains

Structure (SMILES): C=CCOC(=O)NC(C(=O)O)c1csc2ccccc12 (stereo not drawn) [N-Allyloxycarbonyl-(3-benzothienyl)glycine]
- pKa (pKa (66% aqueous DMF)): 5.7

Structure (SMILES): N[C@@H](C(=O)N[C@@H]1C(=O)N2C(C(=O)O)=C(Cl)CS[C@H]12)c1ccccc1 [cefaclor]
- Stability to β-lactamase [1]: 4605
- Stability to β-lactamase [2]: 138
- MIC (Bacteroides fragilis; read-out: MIC Geometric mean, geometric mean over strains): 32 µg/mL (≈ 87 µM)
- MIC (Bacteroides fragilis; [6]): 39 µg/mL (≈ 106 µM)
- MIC (Bacteroides fragilis; strain 180-821): 64 µg/mL (≈ 174 µM)
- MIC (Bacteroides fragilis; strain 10668): 64 µg/mL (≈ 174 µM)
- MIC (Bacteroides fragilis; strain 10683): 16 µg/mL (≈ 43.5 µM)
- MIC (Bacteroides fragilis; strain 10695): 32 µg/mL (≈ 87 µM)
- MIC (Bacteroides fragilis; strain 10732): 16 µg/mL (≈ 43.5 µM)
- MIC (Bacteroides fragilis; strain 10750): > 64 µg/mL
- MIC (Bacteroides fragilis; strain 10774): > 64 µg/mL
- MIC (Bacteroides fragilis; strain 10817): 64 µg/mL (≈ 174 µM)
- MIC (Bacteroides fragilis; strain 10837): > 64 µg/mL
- MIC (Bacteroides fragilis; strain 107266): 16 µg/mL (≈ 43.5 µM)
- MIC (Bacteroides fragilis; strain 107268): 16 µg/mL (≈ 43.5 µM)
- MIC (Bacteroides fragilis; strain 108133): 32 µg/mL (≈ 87 µM)
- MIC (Haemophilus influenzae; read-out: MIC Geometric Mean, geometric mean over strains): 2 µg/mL (≈ 5.44 µM)
- MIC (Haemophilus influenzae; [6]): 3 µg/mL (≈ 8.16 µM)
- MIC (Haemophilus influenzae; strain 101): 2 µg/mL (≈ 5.44 µM)
- MIC (Haemophilus influenzae; strain 102): 16 µg/mL (≈ 43.5 µM)
- MIC (Haemophilus influenzae; strain 103): 2 µg/mL (≈ 5.44 µM)
- MIC (Haemophilus influenzae; strain 104): 1 µg/mL (≈ 2.72 µM)
- MIC (Haemophilus influenzae; strain 105): 1 µg/mL (≈ 2.72 µM)
- MIC (Haemophilus influenzae; strain 106): 2 µg/mL (≈ 5.44 µM)
- MIC (Haemophilus influenzae; strain 107): 2 µg/mL (≈ 5.44 µM)
- MIC (Haemophilus influenzae; strain 108): 1 µg/mL (≈ 2.72 µM)
- MIC (Haemophilus influenzae; strain 109): 2 µg/mL (≈ 5.44 µM)
- MIC (Haemophilus influenzae; strain 110): 1 µg/mL (≈ 2.72 µM)
- MIC (Haemophilus influenzae; strain 111): 1 µg/mL (≈ 2.72 µM)
- MIC (Haemophilus influenzae; strain 112): 2 µg/mL (≈ 5.44 µM)
- MIC (Haemophilus influenzae; strain 113): 2 µg/mL (≈ 5.44 µM)
- MIC (Haemophilus influenzae; strain 114): 1 µg/mL (≈ 2.72 µM)
- Stability to β-lactamase [3]: 65
- Stability to β-lactamase [4]: 23
- Stability to β-lactamase [5]: 71
